{"source": "patent US20150193597A1", "about": "“PHARMACEUTICAL PRODUCT AND COMMUNICATION TOOL” (priority 2012, published 2015)", "key": {"[1]": {"experiment": "Study 3: Lyrica combination product in generalized anxiety disorder (GAD), perceived symptoms, side effects, quality of life, adherence", "conditions": "Patient 3 (only PP); for Anxiety Daytime / Anxiety Evening/Night / Fatigue / Muscle tension Daytime / Muscle tension Evening/Night: average VAS 0-10; for Dizziness / Dry month / Nausea: frequency of Yes answers; for Quality of Life: average VAS 0-10, 10 = Extremely good", "protocol": "Three patients participated in the study, where two of them were given the combination product, A+B, and the third was given the PP, A. All three patients were using an evaluation tool in order to capture the continuous data concerning their current health situation. Prior to entering the study none of the patients had used either the PP or the CPP.\nLength of study: 2 months.\nThe two patients using the combination product were evaluated against the one patient using only the PP and being treated according to ordinary health care in Sweden.\nDue to the specific and profound study objectives, detailed outcome and behavior during the study period from the patients were evaluated against each other. The measurements of the patient outcomes were evaluated for each patient in different time phases during the treatment period.\nIn order to measure the appropriate patient outcome, the patients were continuously followed-up. […] The used QFM for the patients in the intervention group, patient 1 and 2: • 1. Set of questions. • 2. Set of functions generating individual and patient specific feedback information. • 3. Feedback based upon the individual patient specific feedback information.\nThe used set of questions for the patient in the control group, patient 3: • 1. Set of questions similar to the intervention group in order to capture patient reported outcome data • 2. No set of functions. • 3. No feedback information or feedback.\nThe measured variables (see table 19) were symptom and side effect levels which were perceived estimates by each patient at every measure point. The change in levels of symptoms and side effects between different measured times were used for comparisons. Symptoms and side effects are many times closely related in GAD. In this study anxiety, fatigue, and muscle tension were defined as symptoms while dizziness, nausea, and dry mouth were considered as side effects. This study focused on the overall clinical effect and patient safety aspects therefore it was not crucial to the results if a measured variable could have been defined differently."}, "[2]": {"conditions": "test period when patient only was taking Zoloft (two months)", "text": "Test objectives; improve cardiovascular and diabetes symptoms through an increased well-being from improved adherence to Zoloft, initiating primarily an improved level of physical activity • b. Follow-up variables: Weight and HbA1c • c. Period of time using the combination product: Five months. • d. Period of time using only the pharmaceutical, i.e. no combination product, prior to the period of using the combination product: Two months • e. Period of time using only the software application, after the period of using the combination product: Two weeks\nThe individual goal was set-up by the patient by answering the following question: “Give your own personal goal for the physical activity in number of minutes for one week”. • The patient was then asked to continuously answer a question like the following: “I have been exercising the following number of minutes today: [number]”. • Weight/BMI: • The patient was asked to answer a question regarding his/her actual weight. • Depression and Anxiety, respectively: • The patient was asked to register the actual level of perceived depression respectively actual level of perceived anxiety at predefined occasions every second day. It was also possible for the patient to answer the question when he/she wanted. […]"}, "[3]": {"conditions": "test period when patient was only taking Metformin (two months)", "experimental": "Follow-up variables: HbA1c • c. Period of time using the combination product: Three months. • d. Period of time using only the pharmaceutical, i.e. no combination product, prior to the period of using the combination product: Two months\nMetformin was the following: • Adherence to Metformin: • The patient was asked to answer a question whether or not he/she had been adherent to Metformin, and which dose the patient took; “I have taken my Metformin today with the daily dose of 500 mg/1000 mg/1500 mg/2000 mg/2500 mg or 3000 mg”. • Physical activity: • The patient was asked to continuously answer a question like the following: “I have been exercising the following number of minutes today: [number]”. • Weight/BMI: • The patient was asked to answer a question regarding his/her actual weight. • Blood glucose: • The patient was asked to register his/her measured blood glucose, when he/she had measured it. It was possible for the patient to change or update already registered answers. • HbA1c: • The patient was asked to register his/her HbA1c after it had been measured at a clinic. • A possible adverse event for Metformin: • “Have you experienced unexpected loss of weight, severe nausea or vomiting (malaise), uncontrolled sudden pain when breathing or abdominal? […] Extremely much versus Nothing at all” according to a VAS structure"}}, "data": [{"smiles": "CC(C)C[C@H](CN)CC(=O)O", "note": "[A, pregabalin]", "values": [{"measurement": "Anxiety Daytime", "setting": "[1]; 1st phase", "value": 3.5}, {"measurement": "Anxiety Evening/Night", "setting": "[1]; 1st phase", "value": 2.8}, {"measurement": "Fatigue", "setting": "[1]; 1st phase", "value": 5.4}, {"measurement": "Muscle tension Daytime", "setting": "[1]; 1st phase", "value": 6.3}, {"measurement": "Muscle tension Evening/Night", "setting": "[1]; 1st phase", "value": 3.9}, {"measurement": "Dizziness", "setting": "[1]; 1st phase", "value": 13, "unit": "%"}, {"measurement": "Dry month", "setting": "[1]; 1st phase", "value": 0, "unit": "%"}, {"measurement": "Nausea", "setting": "[1]; 1st phase", "value": 38, "unit": "%"}, {"measurement": "Anxiety Daytime", "setting": "[1]; 2nd phase", "value": 3.0}, {"measurement": "Anxiety Evening/Night", "setting": "[1]; 2nd phase", "value": 2.9}, {"measurement": "Fatigue", "setting": "[1]; 2nd phase", "value": 5.0}, {"measurement": "Muscle tension Daytime", "setting": "[1]; 2nd phase", "value": 7.8}, {"measurement": "Muscle tension Evening/Night", "setting": "[1]; 2nd phase", "value": 7.4}, {"measurement": "Dizziness", "setting": "[1]; 2nd phase", "value": 0, "unit": "%"}, {"measurement": "Dry month", "setting": "[1]; 2nd phase", "value": 0, "unit": "%"}, {"measurement": "Nausea", "setting": "[1]; 2nd phase", "value": 11, "unit": "%"}, {"measurement": "Anxiety Daytime, Change", "setting": "[1]; 2nd vs 1st phase", "value": "−0.5"}, {"measurement": "Anxiety Evening/Night, Change", "setting": "[1]; 2nd vs 1st phase", "value": 0.1}, {"measurement": "Dizziness, Change", "setting": "[1]; 2nd vs 1st phase", "value": "−13", "unit": "p.p."}, {"measurement": "Dry month, Change", "setting": "[1]; 2nd vs 1st phase", "value": 0, "unit": "p.p."}, {"measurement": "Fatigue, Change", "setting": "[1]; 2nd vs 1st phase", "value": "−0.4"}, {"measurement": "Muscle tension Daytime, Change", "setting": "[1]; 2nd vs 1st phase", "value": 1.5}, {"measurement": "Muscle tension Evening/Night, Change", "setting": "[1]; 2nd vs 1st phase", "value": 5.5}, {"measurement": "Nausea, Change", "setting": "[1]; 2nd vs 1st phase", "value": "−27", "unit": "p.p."}, {"measurement": "Anxiety Daytime", "setting": "[1]; 3rd phase", "value": 1.9}, {"measurement": "Anxiety Evening/Night", "setting": "[1]; 3rd phase", "value": 1.8}, {"measurement": "Fatigue", "setting": "[1]; 3rd phase", "value": 5.1}, {"measurement": "Muscle tension Daytime", "setting": "[1]; 3rd phase", "value": 7.1}, {"measurement": "Muscle tension Evening/Night", "setting": "[1]; 3rd phase", "value": 7.2}, {"measurement": "Dizziness", "setting": "[1]; 3rd phase", "value": 0, "unit": "%"}, {"measurement": "Dry month", "setting": "[1]; 3rd phase", "value": 0, "unit": "%"}, {"measurement": "Nausea", "setting": "[1]; 3rd phase", "value": 0, "unit": "%"}, {"measurement": "Anxiety Daytime, Change", "setting": "[1]; 3rd vs 2nd phase", "value": "−1.1"}, {"measurement": "Anxiety Evening/Night, Change", "setting": "[1]; 3rd vs 2nd phase", "value": "−1.1"}, {"measurement": "Dizziness, Change", "setting": "[1]; 3rd vs 2nd phase", "value": 0, "unit": "p.p."}, {"measurement": "Dry month, Change", "setting": "[1]; 3rd vs 2nd phase", "value": 0, "unit": "p.p."}, {"measurement": "Fatigue, Change", "setting": "[1]; 3rd vs 2nd phase", "value": 0.1}, {"measurement": "Muscle tension Daytime, Change", "setting": "[1]; 3rd vs 2nd phase", "value": "−0.7"}, {"measurement": "Muscle tension Evening/Night, Change", "setting": "[1]; 3rd vs 2nd phase", "value": "−0.3"}, {"measurement": "Nausea, Change", "setting": "[1]; 3rd vs 2nd phase", "value": "−11", "unit": "p.p."}, {"measurement": "Anxiety Daytime", "setting": "[1]; End period", "value": 2.0}, {"measurement": "Anxiety Evening/Night", "setting": "[1]; End period", "value": 2.5}, {"measurement": "Fatigue", "setting": "[1]; End period", "value": 4.8}, {"measurement": "Muscle tension Daytime", "setting": "[1]; End period", "value": 7.3}, {"measurement": "Muscle tension Evening/Night", "setting": "[1]; End period", "value": 7.4}, {"measurement": "Quality of Life", "setting": "[1]; End period", "value": 2.5}, {"measurement": "Dizziness", "setting": "[1]; End period", "value": 0, "unit": "%"}, {"measurement": "Dry month", "setting": "[1]; End period", "value": 0, "unit": "%"}, {"measurement": "Nausea", "setting": "[1]; End period", "value": 0, "unit": "%"}, {"measurement": "Anxiety Daytime, Change", "setting": "[1]; End vs Start period", "value": "−1.8"}, {"measurement": "Anxiety Evening/Night, Change", "setting": "[1]; End vs Start period", "value": 0.1}, {"measurement": "Dizziness, Change", "setting": "[1]; End vs Start period", "value": "−13", "unit": "p.p."}, {"measurement": "Dry month, Change", "setting": "[1]; End vs Start period", "value": 0, "unit": "p.p."}, {"measurement": "Fatigue, Change", "setting": "[1]; End vs Start period", "value": "−0.8"}, {"measurement": "Muscle tension Daytime, Change", "setting": "[1]; End vs Start period", "value": 1.4}, {"measurement": "Muscle tension Evening/Night, Change", "setting": "[1]; End vs Start period", "value": 4.0}, {"measurement": "Nausea, Change", "setting": "[1]; End vs Start period", "value": "−38", "unit": "p.p."}, {"measurement": "Quality of Life, Change", "setting": "[1]; End vs Start period", "value": 0.5}, {"measurement": "Anxiety Daytime", "setting": "[1]; Start period", "value": 3.8}, {"measurement": "Anxiety Evening/Night", "setting": "[1]; Start period", "value": 2.4}, {"measurement": "Fatigue", "setting": "[1]; Start period", "value": 5.6}, {"measurement": "Muscle tension Daytime", "setting": "[1]; Start period", "value": 5.9}, {"measurement": "Muscle tension Evening/Night", "setting": "[1]; Start period", "value": 3.4}, {"measurement": "Quality of Life", "setting": "[1]; Start period", "value": 2.0}, {"measurement": "Dizziness", "setting": "[1]; Start period", "value": 13, "unit": "%"}, {"measurement": "Dry month", "setting": "[1]; Start period", "value": 0, "unit": "%"}, {"measurement": "Nausea", "setting": "[1]; Start period", "value": 38, "unit": "%"}]}, {"smiles": "CN[C@H]1CC[C@@H](c2ccc(Cl)c(Cl)c2)c2ccccc21", "note": "[Zoloft, Sertralin]", "values": [{"measurement": "HbA1c course", "setting": "[2]", "value": "remained stable or slightly increased"}, {"measurement": "weight gain", "setting": "[2]", "value": "1-2%"}]}, {"smiles": "CN(C)C(=N)N=C(N)N", "note": "[Metformin]", "values": [{"measurement": "increase of HbA1c", "setting": "[3]", "value": 7, "unit": "%"}]}]}
